According to patent US10392412B2, “Platinum anticancer agents” (THE REGENTS OF THE UNIVERSITY OF CALIFORNIA, priority 2015, dated 2019):
“Also recorded” adds a separate entry of the source. Where two headings read alike, the source gives them in different places. Marks after values point to notes of the source that are not given here.

How the values were obtained:
U-2 OS cells = assay: Cytotoxicity CellTiter-Glo; type: cell-based, human
SHEP cells = assay: Cytotoxicity CellTiter-Glo; type: cell-based, human
RMS13 cells = assay: Cytotoxicity CellTiter-Glo; type: cell-based, human; settings: RMS13, Rhabdomyosarcoma
A673 cells = assay: Cytotoxicity CellTiter-Glo; type: cell-based, human
U87MG cells = assay: Cytotoxicity CellTiter-Glo; type: cell-based, human
[1] = tested on: SK-N-DZ neuroblastoma xenografts; assay: SK-N-DZ neuroblastoma xenograft in nu/nu mice; type: in vivo, mouse
Description: (§1) The xenograft studies were performed by subcutaneous injection of SK-N-DZ (neuroblastoma, 30×10^6 cells/animal) and RMS13 (rhabdomyosarcoma, 20×10^6 cells/animal) in right flank of the male Charles River Laboratories nu/nu mice (7-8 weeks old, weight ˜20 g). Mice were treated by intravenous tail vein injection once a week for 4 weeks. The tumor sizes and body weights were monitored twice a week. Tumor volumes were calculated according to the following formula: volume=height×[…]×length×0.5236.

MG-63 cells = assay: Cytotoxicity CellTiter-Glo; type: cell-based, human; settings: MG-63, Osteosarcoma
PE04 cells = assay: Cytotoxicity CellTiter-Glo; type: cell-based, human; settings: read-out: IC50 (50% growth inhibition); PE04, Ovary; 72 hours
OVCAR2 cells = assay: Cytotoxicity CellTiter-Glo; type: cell-based, human; settings: read-out: IC50 (50% growth inhibition); OVCAR2, Ovary; 72 hours
[2] = tested on: RMS13 rhabdomyosarcoma xenografts; assay: RMS13 rhabdomyosarcoma xenograft in nu/nu mice; type: in vivo, mouse
Description: as §1

Kelly cells = assay: Cytotoxicity CellTiter-Glo; type: cell-based, human
T98G cells = assay: Cytotoxicity CellTiter-Glo; type: cell-based, human
PE01 cells = assay: Cytotoxicity CellTiter-Glo; type: cell-based, human; settings: read-out: IC50 (50% growth inhibition); PE01, Ovary; 72 hours
AsPC1 cells = assay: Cytotoxicity CellTiter-Glo; type: cell-based, human; settings: read-out: IC50 (50% growth inhibition); AsPC1, Pancreas; 72 hours
Description: (§2) Human cancer cell lines were purchased from UCSF Cell Culture Facility (CCF) or obtained through Material Transfer.
(§3) The range of platinum concentrations used in the studies are 5 μM-100 μM. After 72 hours of treatment, the medium were removed and replaced with 50 μL of the media plus 50 μL of the CellTiterGlo reagent. The number of viable cells in culture will be determined based on quantitation of the ATP present, which is an indicator of the number of active cells. Concentration response graphs were generated for each compound using GraphPad Prism software. The graphs were analyzed using a curve fit for sigmoid dose-response, and IC50 values were derived. The results were expressed as mean IC50 values with the standard error of the mean.

H226 cells = assay: Cytotoxicity CellTiter-Glo; type: cell-based, human; settings: read-out: IC50 (50% growth inhibition); H226, Non-small cell squamous; 72 hours
Description: as §2, §3

PC3 cells = assay: Cytotoxicity CellTiter-Glo; type: cell-based, human; settings: read-out: IC50 (50% growth inhibition); PC3, Prostate; 72 hours
Description: as §2, §3

HCT116 cells = assay: Cytotoxicity CellTiter-Glo; type: cell-based, human; settings: read-out: IC50 (50% growth inhibition); HCT116, Colon; 72 hours
Description: as §2, §3

HT29 cells = assay: Cytotoxicity CellTiter-Glo; type: cell-based, human; settings: read-out: IC50 (50% growth inhibition); HT29, Colon; 72 hours
Description: as §2, §3

DU145 cells = assay: Cytotoxicity CellTiter-Glo; type: cell-based, human; settings: read-out: IC50 (50% growth inhibition); DU145, Prostate; 72 hours
Description: as §2, §3

[3] = Maximum tolerated dose study: blood chemistry test (Table 7); settings: mouse, in vivo, iv, 5 mg/kg
Description: The mice used in MTD were given standard chow devoid of added folic acid (low folate diet) (See, Leamon C P et al., J. Pharmacol. Exp. Ther. 327: 918-925). […] Therefore we also designed a MTD study in mice treated with low folate diet. Food consumption on the day before injection (Day −1) was recorded and then it was monitored every other day. […] Blood for clinical chemistry was collected if possible. Liver, kidney and bone marrow were collected. One side of each tissue (except bone marrow) will be fixed in 4-10% formalin for future histology analysis, and the rest of tissue will be cut into pieces, snap frozen, and stored at −80° C. until analysis. Blood samples for clinical chemistry were centrifuged at 8000 rpm for 10 min at 4° C. within 1 hour of collection. Plasma was collected into 1.5 mL eppendorf tubes and stored at −80° C. until analysis. The measured parameters were alanine transaminase (ALT), aspartate transaminase (AST), alkaline phosphatase (ALP), total bilirubin, glucose, blood urea nitrogen (BUN), creatinine, and electrolytes. All experiments were housed in a virus-free, temperature controlled facility on a 12-h light-dark cycle.

A2780-CP cells = assay: Cytotoxicity CellTiter-Glo; type: cell-based, human; settings: read-out: IC50 (50% growth inhibition), Ovary, 72 hours
SNB75 cells = assay: Cytotoxicity CellTiter-Glo; type: cell-based, human
SNF539 cells = assay: Cytotoxicity CellTiter-Glo; type: cell-based, human
SAOS-2 cells = assay: Cytotoxicity CellTiter-Glo; type: cell-based, human; settings: SAOS-2, Osteosarcoma
SH-SY5Y cells = assay: Cytotoxicity CellTiter-Glo; type: cell-based, human
A2780 cells = assay: Cytotoxicity CellTiter-Glo; type: cell-based, human; settings: read-out: IC50 (50% growth inhibition); A2780, Ovary; 72 hours
A204 cells = assay: Cytotoxicity CellTiter-Glo; type: cell-based, human; settings: A204, Rhabdomyosarcoma
U251 cells = assay: Cytotoxicity CellTiter-Glo; type: cell-based, human
genomic DNA = assay: Platinum-DNA adducts by ICP-MS in HEK293 cells; type: cell-based, human; settings: 10 μM, 2 hours
Description: Method to quantify platinum-DNA adducts by ICP-MS has been previously described (5,6). In brief, HEK293 cells were seeded in 6-well poly-D-lysine plate (cell density=0.5×10^6 cells/well). […] After 2 hours, the cells were washed twice with cold HBBS. The platinum content associated with genomic DNA was determined as described elsewhere. Genomic DNA was isolated from the cell pellets using Genomic DNA purification kit (Promega) and the DNA-bound platinum was determined by ICP-MS, which was normalized to total DNA content (determined by absorption spectrometry at 260 nm).

[4] = read-out: IC50 (50% growth inhibition), Neuroblastoma, 72 hours
[5] = read-out: IC50 (50% growth inhibition), 72 hours
[6] = read-out: IC50 (50% growth inhibition), Brain, 72 hours

With `N.N.[Cl][Pt][Cl]` [Cisplatin, cisplatin, reference compound] the GI50 (U-2 OS cells; Osteosarcoma) was 59.3 ± 9 µM, the IC50 (U-2 OS cells; read-out: IC50 (50% growth inhibition), Osteosarcoma, 72 hours) was 59.3 ± 9 µM and the GI50 (SHEP cells; Neuroblastoma) was 4.4 ± 2.4 µM. It also gave an IC50 (SHEP cells; [4]) of 4.4 ± 2.4 µM, a GI50 (RMS13 cells) of 2.5 ± 0.5 µM and an IC50 (RMS13 cells; [5]) of 2.5 ± 0.5 µM. The GI50 (A673 cells; A673, Ewing's sarcoma) was 0.4 ± 0.3 µM, the IC50 (A673 cells; read-out: IC50 (50% growth inhibition), A673, Ewing's Sarcoma, 72 hours) was 0.4 ± 0.3 µM and the IC50 (U87MG cells; [6]) was 16.2 ± 12.6 µM. For the same molecule, the “tumor volume / tumor growth” value ([1]; SKNDZ neuroblastoma xenograft, 5 mg/kg i.v. once a week for 4 weeks) was “inhibited tumor growth”, the survival ([1]; SKNDZ xenograft model, 5 mpk, 5 mg/kg) was “significant difference in survival; also recorded: increase survival rate” and the GI50 (MG-63 cells) was 5.1 ± 2.3 µM. It also gave an IC50 (MG-63 cells; [5]) of 5.1 ± 2.3 µM, an IC50 (PE04 cells) of 4.9 ± 2 µM and an IC50 (OVCAR2 cells) of 3.3 ± 1.6 µM. For the same molecule, the “tumor volume / tumor growth” value ([2]; RMS13 rhabdomyosarcoma xenograft, 5 mg/kg i.v. once a week for 4 weeks) was “inhibited tumor growth”, the survival ([2]; RMS13 xenograft model, 5 mpk) was “increase survival rate” and the GI50 (Kelly cells; Neuroblastoma) was 7 ± 5 µM. It also gave an IC50 (Kelly cells; [4]) of 7 ± 5 µM, an IC50 (T98G cells; [6]) of 27.5 µM and an IC50 (PE01 cells) of 0.6 ± 0.4 µM. For the same molecule, the IC50 (AsPC1 cells) was 2.9 ± 0.03 µM, the IC50 (H226 cells) was 13.8 ± 2.8 µM and the IC50 (PC3 cells) was 2.5 ± 0.3 µM. The IC50 (HCT116 cells) was 2.1 ± 0.3 µM, the IC50 (HT29 cells) was 2.3 ± 0.4 µM and the IC50 (DU145 cells) was 0.5 ± 0.01 µM. For the same molecule, the Cl [3] was 102.33*, the IC50 (A2780-CP cells) was 8.6 ± 2.1 µM and the IC50 (SNB75 cells; read-out: IC50 (50% growth inhibition), SNB75, Brain, 72 hours) was 15.4 ± 12.6 µM. It also gave an IC50 (SNF539 cells; read-out: IC50 (50% growth inhibition), SNF539, Brain, 72 hours) of 6.5 ± 7.2 µM, a GI50 (SAOS-2 cells) of 20.5 ± 9.9 µM and an IC50 (SAOS-2 cells; [5]) of 20.5 ± 9.9 µM. The GI50 (SH-SY5Y cells; Neuroblastoma) was 1 ± 0.6 µM, the IC50 (SH-SY5Y cells; [4]) was 1 ± 0.6 µM and the IC50 (A2780 cells) was 1.2 ± 0.2 µM. For the same molecule, the GI50 (A204 cells) was 4.6 ± 4.4 µM, the IC50 (A204 cells; [5]) was 4.6 ± 4.4 µM and the IC50 (U251 cells; read-out: IC50 (50% growth inhibition), U251, Brain, 72 hours) was 11.2 ± 10.8 µM.
With `CN(Cc1cnc2nc(N)nc(N)c2n1)c1ccc(C(=O)N[C@@H](CCC(=O)O)C(=O)O)cc1` [Methotrexate, methotrexate, reference compound] the “platinum content associated with genomic DNA (platinum-DNA adducts)” value (genomic DNA) was “did not have strong intensity (binding)”.
Molecule `CN(Cc1cnc2nc(N)nc(N)c2n1)c1ccc(C(=O)NC(CCC(=O)O)C(=O)O)cc1.[Cl][Pt][Cl]` (stereo not shown) [SM-69B] has an IC50 (HeLa R1-11 (SLC46A1)) of 0.702 µM, an IC50 (U87MG cells; read-out: IC50 ± S.D. (50% growth inhibition), Brain - Low grade, + 1 mM Folic Acid) of 13.9 ± 11.1 µM and an IC50 (U87MG cells; read-out: IC50 ± S.D. (50% growth inhibition), Brain - Low grade, two independent experiments) of 0.96 ± 0.09 µM. The IC50 (HeLa R1-11 (SLC19A1)) was 0.109 µM, the IC50 (T98G cells; read-out: IC50 ± S.D. (50% growth inhibition), Brain - High grade, + 1 mM Folic Acid) was 5.3 ± 1.2 µM and the IC50 (T98G cells; read-out: IC50 ± S.D. (50% growth inhibition), Brain - High grade, two independent experiments) was 0.31 ± 0.05 µM. It also gave an IC50 (SNB75 cells; read-out: IC50 ± S.D. (50% growth inhibition), SNB75, Brain - High grade, + 1 mM Folic Acid) of 63.3 ± 3.3 µM, an IC50 (SNB75 cells; read-out: IC50 ± S.D. (50% growth inhibition), SNB75, Brain - High grade, two independent experiments) of 11.1 ± 2.1 µM and an IC50 (SNF539 cells; read-out: IC50 ± S.D. (50% growth inhibition), SF539, Brain - High grade, + 1 mM Folic Acid) of 43.2 ± 12.9 µM. For the same molecule, the IC50 (SNF539 cells; read-out: IC50 ± S.D. (50% growth inhibition), SF539, Brain - High grade, two independent experiments) was 0.46 ± 0.04 µM, the IC50 (U251 cells; read-out: IC50 ± S.D. (50% growth inhibition), U251, Brain - High grade, + 1 mM Folic Acid) was 18 ± 1.4 µM and the IC50 (U251 cells; read-out: IC50 ± S.D. (50% growth inhibition), U251, Brain - High grade, two independent experiments) was 0.87 ± 0.13 µM.
